ChEMBL document CHEMBL3616434, “Identification of Phenoxyalkylbenzimidazoles with Antitubercular Activity” (J Med Chem, 2015)
In brackets after ≈: the same amount, converted by molar mass. Activity calls are given as the source filed them. The calls are words filed in the database; no cut-off is given here.

Key:
[1] = Metabolic stability of the compound in mouse liver microsomes assessed as compound turnover at 2 uM after 30 mins by LC-MS analysis; assay type: ADME; settings: read-out: Drug metabolism
[2] = system: Mycobacterium tuberculosis; assay: Antitubercular activity against Mycobacterium tuberculosis after 21 to 28 days by serial proportion method; assay type: functional
[3] = Metabolic stability of the compound in rat liver microsomes assessed as compound turnover at 2 uM after 30 mins by LC-MS analysis; assay type: ADME; settings: read-out: Drug metabolism
[4] = Thermodynamic equilibrium solubility of the compound using 10 mM DMSO at pH 2; assay type: physicochemical; settings: buffer, read-out: Therm_solubility
[5] = Cytotoxicity against African green monkey Vero cells after 2 days by luminescent assay; assay type: cell-based; settings: chlorocebus sabaeus, read-out: TC50
[6] = Selectivity index, ratio of TC50 for African green monkey Vero cells to MIC for Mycobacterium tuberculosis H37Rv ATCC 25618
MDCK = assay: Passive permeability of the compound from apical to basolateral direction in MDCK cells at 10 uM in presence of P-gp inhibitor; assay type: ADME, cell-based, Canis lupus familiaris; settings: dog
[7] = system: Mycobacterium tuberculosis; assay: Bactericidal activity against nonreplicating Mycobacterium tuberculosis assessed as log reduction CFU at 1 to 10 times MIC after 21 days; assay type: functional
Escherichia coli = assay: Antimicrobial activity against Escherichia coli after 1 day by serial proportion method; assay type: functional; settings: 24 h
[8] = system: Mycolicibacterium smegmatis; assay: Antimicrobial activity against Mycobacterium smegmatis MC2 155 after 5 to 7 days by serial proportion method; assay type: functional; settings: str. MC2 155
[9] = Thermodynamic equilibrium solubility of the compound using 10 mM DMSO at pH 6; assay type: physicochemical; settings: buffer, read-out: Therm_solubility
Staphylococcus aureus = assay: Antimicrobial activity against Staphylococcus aureus after 2 days by serial proportion method; assay type: functional; settings: 48 h
[10] = system: Mycobacterium tuberculosis; assay: Bactericidal activity against nonreplicating Mycobacterium tuberculosis assessed as log reduction CFU at MIC after 21 days; assay type: functional
[11] = Thermodynamic equilibrium solubility of the compound using 10 mM DMSO at pH 7.4; assay type: physicochemical; settings: buffer, read-out: Therm_solubility
[12] = Metabolic stability of the compound in human liver microsomes assessed as compound turnover at 2 uM after 30 mins by LC-MS analysis; assay type: ADME; settings: read-out: Drug metabolism
[13] = Fraction unbound in mouse plasma after 4.5 hrs by LC-MS/MS analysis; assay type: ADME, cell-free
[14] = system: Mycobacterium tuberculosis; assay: Bactericidal activity against replicating Mycobacterium tuberculosis at 1 to 10 times MIC after 21 days; assay type: functional, organism-based
[15] = system: Mycobacterium tuberculosis; assay: Antitubercular activity against Mycobacterium tuberculosis H37Rv ATCC 25618 under aerobic condition after 5 days; assay type: functional; settings: H37Rv ATCC 25618, 120 h
[16] = system: Mycobacterium tuberculosis; assay: Bactericidal activity against replicating Mycobacterium tuberculosis assessed as log reduction CFU at 1 to 10 times MIC after 21 days; assay type: functional
[17] = system: Mycobacterium tuberculosis; assay: Antitubercular activity against Mycobacterium tuberculosis H37Rv; assay type: functional
[18] = system: Mycobacterium tuberculosis; assay: Ratio of MBC to MIC for replicating Mycobacterium tuberculosis at 1 to 10 times MIC after 21 days; assay type: functional

| Compound | metabolised at 0.5 h, 2 µM [1] [%] | MIC99 [2] [µM] | metabolised at 0.5 h, 2 µM [3] [%] | solubility thermodynamic [4] [µg/mL] | CC50 at 48 h [5] [µM] | Ratio [6] | permeability (MDCK) [%] | MIC99 (Escherichia coli) [µM] | MIC99 [8] [µM] | solubility thermodynamic [9] [µg/mL] | MIC99 (Staphylococcus aureus) [µM] | solubility thermodynamic [11] [µg/mL] | metabolised at 0.5 h, 2 µM [12] [%] | fraction unbound at 4.5 h [13] | MIC [15] [µM] | other results |
| --- | --- | --- | --- | --- | --- | --- | --- | --- | --- | --- | --- | --- | --- | --- | --- | --- |
| CCc1nc2ccccc2n1CCCCSc1nnc(-c2ccc(Cl)cc2)o1 | 99.8 | 2.5 (≈ 1.03 µg/mL) | 99.9 | 830 (≈ 2010 µM) | 22 | 220 | 4.4 | > 100 | > 100 | < 1 | > 100 | < 1 | 99.9 | 0.006 | 0.1 (≈ 0.0413 µg/mL) | FC [7]: >3; FC [10]: >3; Activity [14]: inactive |
| CCc1nc2ccc(C)cc2n1CCCCOc1ccccc1 | 99.9 | – | 99.9 | 630 (≈ 2040 µM) | 18 | 67 | – | – | – | 40 (≈ 130 µM) | – | 10 (≈ 32.4 µM) | 98.9 | – | 0.27 (≈ 0.0833 µg/mL) | – |
| CCc1nc2ccccc2n1CCCCOc1ccccc1 | – | 5 (≈ 1.47 µg/mL) | – | – | 21 | 19 | – | > 100 | > 100 | – | > 100 | – | – | – | 1.1 (≈ 0.324 µg/mL) | – |
| CCc1nc2ccccc2n1CCCCNc1ccccc1 | 99.9 | – | 99.9 | 610 (≈ 2080 µM) | 42 | 89 | 21.5 | – | – | 10 (≈ 34.1 µM) | – | < 1 | 90.6 | 0.045 | 0.47 (≈ 0.138 µg/mL) | Activity [14]: inactive |
| CCc1nc2ccccc2n1CCCCSc1ccccc1 | – | 10 (≈ 3.1 µg/mL) | – | – | 31 | 22 | – | > 100 | > 100 | – | > 100 | – | – | – | 1.4 (≈ 0.435 µg/mL) | – |
| CCc1nc2cc(Cl)ccc2n1CCCCOc1ccccc1 | 99.8 | – | 99.7 | 670 (≈ 2040 µM) | 16 | 53 | 3.6 | – | – | < 1 | – | < 1 | 98.5 | 0.004 | 0.3 (≈ 0.0987 µg/mL) | – |
| CCc1nc2ccccc2n1CCCOc1ccccc1 | – | – | – | – | > 50 | >9.6 | – | – | – | – | – | – | – | – | 5.2 (≈ 1.46 µg/mL) | FC [16]: 2; MIC [17]: 3.4 µM (≈ 0.953 µg/mL); FC [7]: >3; Ratio [18]: >4; FC [10]: >3 |
